Assay results: patent publication US6576596B1, “Substituted 2-benzoyl-cyclohexan-1,3-diones with herbicidal effect” (BASF Aktiengesellschaft, priority 1997, dated 2003)

Key:
Format in all cases: in vivo
[1] = test system: Echinochloa crus galli; assay: greenhouse herbicidal test, post-emergence treatment; conditions: 0.125 or 0.0625 kg/ha (of a.s.), Echinochloa crus galli (barnyardgrass)
From the text: (§1) The culture containers used were plastic flowerpots containing loamy soil with approximately 3.0% of humus as the substrate. The seeds of the test plants were sown separately for each species.
(§2) For the post-emergence treatment, the test plants were first grown to a plant height of 3 to 15 cm, depending on the plant habit, and only then treated with the active compounds which had been suspended or emulsified in water. The test plants for this purpose were either sown directly and grown in the same containers, or they were first grown separately as seedlings and transplanted into the test containers a few days prior to treatment. The rate of application for the post-emergence treatment was 0.125.or 0.0625 kg/ha of a.s. (active substance).
(§3) Depending on the species, the plants were kept at 10-25° C. or 20-35° C. The test period extended over 2 to 4 weeks. During this time, the plants were tended, and their response to the individual treatments was evaluated.
(§4) Evaluation was carried out using a scale from 0 to 100. 100 means no emergence of the plants, or complete destruction of at least the aerial parts, and 0 means no damage, or normal course of growth.
(§5) The plants used in the greenhouse experiments belonged to the following species: […]

[2] = test system: Chenopodium album; assay: as above; conditions: 0.125 or 0.0625 kg/ha (of a.s.), Chenopodium album (lambsquarters)
From the text: as §1, §2, §3, §4, §5

[3] = test system: Sinapis alba; assay: as above; conditions: 0.125 or 0.0625 kg/ha (of a.s.), Sinapis alba (white mustard)
From the text: as §1, §2, §3, §4, §5

[4] = test system: Zea mays; assay: greenhouse test, post-emergence treatment, crop tolerance; conditions: 0.125 or 0.0625 kg/ha (of a.s.)
From the text: as §1, §2, §3, §4, §5

SMILES: CCON=Cc1c(S(C)(=O)=O)ccc(C(=O)C2C(=O)CC(C)(C)CC2=O)c1Cl [Compound 2.07, 2-(2-Chloro-3-ethoxyiminomethyl-4-methylsulfonylbenzoyl)-5,5-dimethyl-1,3-cyclohexanedione]
- herbicidal activity against harmful plants [1]: very good activity
- herbicidal activity against harmful plants [2]: very good activity
- herbicidal activity against harmful plants [3]: very good activity
- tolerance in crop plant maize [4]: well tolerated
